Values joined by “and” are separate entries in the source; they are usually repeats but may differ in a detail not shown here. Equal values may be shown once.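 Step 1: Grow cells in 96-well plates. Step 2: Expose to compound for 48 hours at 5 concentrations. Step 3: Interpolate endpoints linearly; if unreached, use highest concentration. GI50 marks 50% less growth. TGI marks complete inhibition of growth.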
Assays:
Experiment in all cases: inhibition of tumour cell growth, NCI panel, 48 h
[1] = test system: HCT-15 colon
[2] = test system: HS 578T breast
[3] = test system: HT29 colon
[4] = test system: K-562 leukemia
[5] = test system: OVCAR-5 ovarian
[6] = test system: PC-3 prostate
[7] = test system: SF-295 CNS
[8] = test system: SK-MEL-5 melanoma
[9] = test system: U251 CNS
[10] = test system: TK-10 renal

SMILES	TGI [1]	TGI [2]	TGI [3]	TGI [4]	TGI [5]	TGI [6]	TGI [7]	TGI [8]	TGI [9]	TGI [10]	GI50 [1]	GI50 [3]	GI50 [5]	GI50 [6]	GI50 [7]	GI50 [8]	GI50 [10]	GI50 [9]	GI50 [4]
CC(=O)N=C1N(/C=C2\C(=O)Oc3ccccc3C2=O)C(=O)/C(=C/c2ccc(NC(C)=O)cc2)N1C	> 100 µM	> 100 µM	> 100 µM	> 100 µM	> 100 µM	> 100 µM	> 100 µM	> 100 µM	> 100 µM	–	–	–	–	–	–	–	–	–	–
CC(=O)N=C1N(/C=C2\C(=O)Oc3ccccc3C2=O)C(=O)/C(=C/c2ccc(Cl)cc2Cl)N1C	> 100 µM	5.03 µM	> 100 µM	> 100 µM	> 100 µM	> 100 µM	> 100 µM	> 100 µM	> 100 µM	–	–	–	–	–	–	–	–	–	–
CC(C)C(N)=O	> 5000 µM	–	> 5000 µM	> 5000 µM	> 5000 µM	–	> 5000 µM	> 5000 µM	> 5000 µM	> 5000 µM	–	–	–	–	–	–	–	–	–
CC1C2(C)OC(=N)C(C#N)(C(c3cccc([N+](=O)[O-])c3)O2)C1(C#N)C#N (stereo not given)	–	> 100 µM	74.6 µM	> 100 µM	> 100 µM	> 100 µM	> 100 µM	20.9 µM	53.8 µM	> 100 µM	–	–	–	–	–	–	–	–	–
O=C1CCCCCCCCCCC1CN1CCCCC1 (stereo not given)	> 100 µM	–	> 100 µM	> 100 µM	> 100 µM	–	> 100 µM	28.3 µM	> 100 µM	> 100 µM	–	–	–	–	–	–	–	–	–
Cc1ccc2oc(=O)c(C(=O)Nc3nc(C45CC6CC(CC(C6)C4)C5)cs3)cc2c1	> 100 µM	> 100 µM	> 100 µM	> 100 µM	> 100 µM	> 100 µM	> 100 µM	> 100 µM	> 100 µM	–	–	–	–	–	–	–	–	–	–
Cc1cc(S(=O)(=O)Nc2nc(N)nc(N(C)C)n2)c(SCC(=O)O)cc1Cl	> 10 µM	–	> 10 µM	> 10 µM	> 10 µM	> 10 µM	> 10 µM	> 10 µM	> 10 µM	> 10 µM	–	–	–	–	–	–	–	–	–
C=C1C(=O)O[C@H]2[C@@H](O)[C@H](C)CCC[C@]3(C)O[C@H]3CC[C@@]3(C)O[C@@H]3C[C@@H]12	4.74 µM	42 µM	12.1 µM	3.25 µM	12.5 µM	14.5 µM	15.6 µM	10.5 µM	15.7 µM	–	–	–	–	–	–	–	–	–	–
CCOC(=O)CC(=O)Nc1cccc2[nH]cnc12	> 100 µM	> 100 µM	> 100 µM	> 100 µM	> 100 µM	> 100 µM	> 100 µM	> 100 µM	> 100 µM	–	–	–	–	–	–	–	–	–	–
O=CC12C3CCC1C2C(=O)C3 (stereo not given)	> 100 µM	–	> 100 µM	> 100 µM	> 100 µM	> 100 µM	> 100 µM	> 100 µM	> 100 µM	> 100 µM	–	–	–	–	–	–	–	–	–
CC(=O)OC[C@@H](OC(C)=O)[C@H](OC(C)=O)[C@@H]1OC(C)(C)O[C@@H]1C1SCCCS1	–	> 100 µM	–	> 100 µM	> 100 µM	> 100 µM	> 100 µM	> 100 µM	> 100 µM	> 100 µM	–	–	–	–	–	–	–	–	–
C=CCO[C@]1(CC=C)C(=O)C(=O)OC1C1COC(C)(C)O1 (stereo not given in full)	42 µM	> 100 µM	37.2 µM	> 100 µM	> 100 µM	> 100 µM	> 100 µM	97.6 µM	> 100 µM	–	–	–	–	–	–	–	–	–	–
NNC(=O)c1nnn(CCc2ccccc2)c1C(=O)NN	> 100 µM	–	> 100 µM	> 100 µM	> 100 µM	> 100 µM	> 100 µM	> 100 µM	> 100 µM	> 100 µM	–	–	–	–	–	–	–	–	–
Nc1ccc(C(=O)c2cn(CCN3CCOCC3)c3ccccc23)c2ccccc12	43.3 µM	> 100 µM	55.9 µM	56.7 µM	> 100 µM	> 100 µM	> 100 µM	51.5 µM	> 100 µM	–	–	–	–	–	–	–	–	–	–
Nc1nc(N)c2cc(NCc3ccc(Cl)c(Cl)c3)ccc2n1	2.02 µM	–	2.05 µM	–	2.19 µM	1.96 µM	2.61 µM	2.83 µM	2.37 µM	2.93 µM	0.765 µM	0.813 µM	1.02 µM	0.623 µM	1.22 µM	1.5 µM	1.59 µM	1.12 µM	–
CC(C)C1=CC23CCC4C(C)(C(=O)O)CCCC4(C)C2CC1C1C(=O)N(c2ccccc2)C(=O)C13 (stereo not given)	> 100 µM	–	> 100 µM	> 100 µM	> 100 µM	–	> 100 µM	> 100 µM	> 100 µM	> 100 µM	–	–	–	–	–	–	–	–	–
CCCCCCCCCCC1OC([C@@H](O)CC[C@H](O)C2CC[C@@H](CCCCCCCC(O)CC3=CC(C)OC3=O)O2)CCC1O (stereo not given in full)	> 25 µM	–	–	> 25 µM	> 25 µM	> 25 µM	> 25 µM	9.13 µM and > 10.5 µM	> 25 µM	> 25 µM	7.58 µM	–	–	2.92 µM	4.31 µM	1.81 µM	–	4 µM	2.48 µM
O=C(NCc1cccc2ccccc12)N/N=C\c1ccc(Cl)cc1	> 100 µM	–	> 100 µM	> 100 µM	> 100 µM	> 100 µM	> 100 µM	> 100 µM	> 100 µM	> 100 µM	–	–	–	–	–	–	–	–	–

Reference: PubChem BioAssay (NCI)
